Source: patent publication US20240415837A1, “PHARMACOLOGIC MODULATION OF 5-FLUOROURACIL BY FOLINIC ACID AND VITAMIN B6 FOR THE TREATMENT OF PATIENTS WITH CARCINOMA” (priority 2021, published 2024)
Like-named read-outs stand apart in the source and are kept apart here. Values belong to the molecule of their own block, whether it stands above or below them.

Key:
[1] = molecular target: serine hydroxymethyl transferase (SHMT) apoenzyme; conditions: cited from earlier work
[2] = Erythrocyte pharmacokinetics of vitamin B6 after intraperitoneal high-dose pyridoxine or pyridoxamine in mice; conditions: erythrocytes, 450 mg/kg intraperitoneal
[3] = molecular target: T1, pyridoxine (pyridoxamine) 5′-phosphate oxidase (PNPOx) (Homo sapiens, UniProt Q9NVS9); conditions: read-out: Km of PNPOx; cited from earlier work
T1 sequence (Q9NVS9 1-261): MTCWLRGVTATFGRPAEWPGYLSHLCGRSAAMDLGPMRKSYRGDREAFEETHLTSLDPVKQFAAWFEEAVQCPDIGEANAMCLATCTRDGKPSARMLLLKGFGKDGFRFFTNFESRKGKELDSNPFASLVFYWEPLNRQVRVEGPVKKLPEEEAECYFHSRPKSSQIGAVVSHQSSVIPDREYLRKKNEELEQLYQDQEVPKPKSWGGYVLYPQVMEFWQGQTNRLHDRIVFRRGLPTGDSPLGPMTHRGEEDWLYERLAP

[4] = Pilot study in patients with advanced breast carcinoma: assessment of toxicity; conditions: human, in vivo
Description: Doxorubicin comprised in FAC and AVCF regimens was suspended in case of ≥10% decrease in left ventricular ejection fraction from baseline value. […] Vinorelbine-containing chemotherapy (i.e., VCbF) was indicated instead of TCbF for patients who had severe hematopoietic impairment or prior taxane-induced toxicity and was used in substitution for TCbF in cases of paclitaxel-induced SPN occurring in patients throughout the study.
Patients with paclitaxel induced neuropathy, whose chemotherapy was either interrupted or pursued with VCbF had further progressive decrease of neurologic symptoms, and then disappearance occurring in most patients during follow-up. […] Except for interruption of paclitaxel as described above, no dose reductions of any cytostatic agent or increasing intervals between courses due to unusual or unexpectedly excessive hematologic and/or visceral toxicity were required. The single case of acute myelogenous leukemia carrying the 17q-chromosome aberration marker occurred 18 months after cessation of induction treatment in one patient who had prior genotoxic cytostatics and radiotherapy.

[5] = cited from earlier work

Structure (SMILES): Cc1ncc(COP(=O)(O)O)c(C=O)c1O [PLP, pyridoxal 5′-phosphate]
Kd ([1]; read-out: Kd of SHMT binding to cofactor, lower end of reported range): ≥ 0.25 µM | Kd ([1]; read-out: Kd of SHMT binding to cofactor, upper end of reported range): ≤ 27 µM

AUC 12 h of B6 vitamer: PLP [2]: 14,988 nmol/L cells · 12 h | AUC 12 h of B6 vitamer: PMP [2]: 19,356 nmol/L cells · 12 h
Structure (SMILES): Cc1ncc(CO)c(CN)c1O [PM, pyridoxamine]

Structure (SMILES): Cc1ncc(COP(=O)(O)O)c(CN)c1O [PMP, pyridoxamine 5′-phosphate]
Km [3]: 1 µM

AUC 12 h of B6 vitamer: PLP [2]: 2,231 nmol/L cells · 12 h | AUC 12 h of B6 vitamer: PMP [2]: 11,597 nmol/L cells · 12 h
Structure (SMILES): Cc1ncc(CO)c(CO)c1O [PN, pyridoxine]
sensory peripheral neuropathy with high cumulative doses of pyridoxine, versus that expected with paclitaxel in TCbF [4]: not accompanied with greater incidence, or higher grades, of sensory peripheral neuropathy | toxicity in man ([5]; extremely high doses for long periods of time): sensory peripheral neuropathy | safety in man ([5]; high doses used for treatment of various conditions): safe
